What was measured:
[1] = test system: HDMEC; test: Toxicity: MTT and active caspase-3 assays; assay type: cell-based, human; conditions: HDMEC; MTT 72 h and active caspase-3 24 h; staurosporine positive control
Description: (§1) Stilbene glycoside toxicity was determined using the MTT and active caspase-3 assays. BAECs or HDMECs (7.5 × 10^3) were seeded in a 96 well plate and incubated for 4 h to allow cell adhesion. The test compound or staurosporine (1 μM), an inducer of active caspase-3 and therefore of apoptosis was added to the wells. Control cells were treated with PBS and the plate was incubated at room temperature for 72 hours. MTT reagent (10 μl) was added followed by incubation at room temperature for 2–4 h. When a purple precipitate was visible, detergent reagent (100 μl) was added to the plates and incubated at room temperature for 2 h in the dark. Absorbance was measured at 570 nm using a microplate reader.
In the apoptosis assay, HDMECs or BAEC (4 × 10^4/ml) in complete medium were added to the chambers slide and allowed to adhere for 24 h. The test compound (X μM) or staurosporine (1 μM) were added to all wells except control (PBS) and incubated for 24 hours. Wells treated with staurosporine were immediately washed (PBS) and fixed (4% paraformaldehyde) when cell morphology became round (2–4 h). After washing and fixing, cells were permeablized (0.1% Triton X-100; 10 min), washed (× 5~5 min each), air dried and blocked with 1% BSA in 1:50 TBS-Tween for 1 h at room temperature. Cells were incubated with goat anti-active caspase-3 (R&D system, UK; 1% BSA in TBS-Tween) for 1 h. […]

[2] = test system: BAEC; test: Toxicity: MTT and active caspase-3 assays; assay type: cell-based, bovine; conditions: MTT 72 h and active caspase-3 24 h, staurosporine 1.0-1.4 μM positive control
Description: Figure 2 The effect of compounds 1 and 2 on BAEC viability. The cytotoxic effect was determined using (A) The MTT assay; cells (7.5 × 10^3) were incubated with the test compounds or with staurosporine (1.4 μM) an inducer of active caspase-3 and of apoptosis for 72 h and MTT added. The absorbance was read at 570 nm. (B) Active-caspase-3 apoptosis assay: cells (4.0 × 10^4/ml) were incubated with the test compounds or with staurosporine (1.0 μM, 24 h) and stained with anti-active caspase-3 as described below. Experiments were performed in triplicate. Representative immunofluorescence photomicrographs for BAEC were taken as described below. A group of apoptotic cells are highlighted in II.
as §1, with “reader. […]” for “reader.”

[3] = test system: phospho-ERK1/2 in BAEC; test: Western blot of ERK1/2 phosphorylation; assay type: cell-based, bovine; conditions: FGF-2 addition
Description: Figure 9 (A) Western blots of p-ERK-1 and -2 were performed on BAEC treated with compound 1 as described below. (B) The bar charts show relative protein expression compared to the control given an arbitrary value of 1.0. All experiments were performed at least twice and a representative example is shown. Lane 1 control, lane 2 FGF-2 (25 ng/ml), lane 3 compound 1 ([…]), lane 4 compound 1 (14.3 μM) + FGF-2, lane 5 compound 1 (28.6 μM), lane 6 compound 1 (28.6 μM) + FGF-2.
The method is described in detail elsewhere. In brief, cells were lysed in RIPA buffer, protein concentration determined using the Biorad assay, and approximately 20 μg aliquots separated by 12% SDS-PAGE, electroblotted onto nitrocellulose filters (Hoefer, San Francisco, Ca, USA), blocked overnight with 1% BSA in TBS-Tween and incubated for 4 h at RT with characterised antibodies to phosphor-ERK1/2 (AutogenBioclear, mouse monoclonal, 1:1000). α-Actin (Sigma, UK; 1:1000) was used as a loading control. Filters were washed in TBS-Tween and stained with antibodies to peroxidase-conjugated secondary antibody. Proteins were detected with the ECL system (Amersham, UK). Protein expression was estimated spectrophotometrically from band intensity. Results are semi-quantitative and given a numerical value compared to the weakest observed band assigned an arbitrary value of 1.0. […]

[4] = test system: chick chorioallantoic membrane; test: Chick chorioallantoic membrane (CAM) assay; assay type: in vivo; conditions: FGF-2 (25 ng) alone
Description: The angiogenic activity of test compounds was determined using the semi-quantitative chick chorioallantoic assay (CAM) as described previously. To expose the CAM a window was created in the shells of 4 day-old chicken eggs. […] […] This approach enabled calculation of an accumulated response in each group. To photograph the membrane, 2 cm^3 of a 50% emulsion of aqueous paraffin oil containing 2% Tween-80 was injected at the site of application and photographed using a Leitz dissecting microscope. Each experiment was performed five times and statistical significance was determined by the Mann-Whitney U test and the data is expressed as a median value (m).

[5] = test system: HDMEC; test: FGF-2-induced tube formation in Matrigel; assay type: cell-based, human; conditions: FGF-2 25 ng/ml
Description: (§2) Cells (1.0 × 10^6/ml) were mixed with an equal volume of Matrigel (Becton -Dickinson, Oxford, UK; prepared according to the supplier's instructions) at 4°C. Aliquots (80 μl) were added to the wells of a 48-well plate and allowed to polymerise (1 h) then 500 μl of 15% FCS containing FGF-2 (25 ng/ml; or other growth factors), with or without test compounds was added. The cells were incubated for 24 h at 37°C then fixed in 4% paraformaldehyde (5 min), washed in cold ethanol and the plate air dried. Cells were stained with Geimsa (30 s), air dried and photographed. Ten random fields were selected and the number of closed tubes counted.

[6] = test system: HDMEC; test: FGF-2 invasion in Matrigel; assay type: cell-based, human; conditions: FGF-2 treated
[7] = test system: BAEC; test: FGF-2 invasion in Matrigel; assay type: cell-based, bovine; conditions: FGF-2 treated
Description: The effect of the test compounds on cell invasion was investigated using a Transwell Boyden chamber system coated with reconstituted growth factor-depleted Matrigel. […] Representative photomicrographs for the effect of compound 1 are shown (Figure 7B).
Figure 7 The effect of compounds 1 (AI) and 2 (AII) on BAEC invasion into a Matrigel layer was studied using the chemoinvasion assay described below. Cells (1.7 × 10^4) were added to the Matrigel coated upper Boyden chamber and the compounds with or without FGF-2 added to the lower chamber. Cell invasion was measured after 24 h and assessed as described below. […] Results are the mean of three experiments. (B) Representative photomicrographs are shown for the effect of compound 1 on BAEC (original magnification × 20).
The procedure described above was repeated and wells having a uniform network of tubes were used to assess invasion into a second layer of Matrigel. Matrigel (100 μl), with and without the test compounds was added to the cells and allowed to polymerise (1 h at 37°C). FCS (15%) was added and the cells incubated for 24–72 h when tube growth into the upper layer was measured as described above.

[8] = test system: BAEC; test: FGF-2-induced tube formation in Matrigel; assay type: cell-based, bovine; conditions: FGF-2 25 ng/ml
Description: as §2

[9] = test system: human umbilical vein ECs; set-up: method as in PMID 11092574; conditions: cited from earlier work

With `CN[C@@H]1C[C@H]2O[C@@](C)([C@@H]1OC)n1c3ccccc3c3c4c(c5c6ccccc6n2c5c31)C(=O)NC4` [staurosporine, reference compound] as the compound, how does the Cytotoxic effect [1] read?
Its Cytotoxic effect is “significant cytotoxicity”.

What about the Cytotoxic effect [2] of the same compound?
The Cytotoxic effect was “significant cytotoxicity”.

What does the source list for “FGF-2: fibroblast growth factor-2, pro-angiogenic growth factor used as stimulus”?
Increase in ERK1/2 phosphorylation compared to the control [3]: 50%; Degree of angiogenesis (m), median score [4]: 3; Increase in differentiation into capillary-like structures [5]: approximately 4.0 fold; Increase in migration into a second layer of Matrigel [6]: 3.0 fold; Increase in migration into a second layer of Matrigel [7]: 3.2 fold; Increase in differentiation into capillary-like structures [8]: approximately 4.0 fold

For `Oc1ccc(/C=C/c2cc(O)cc(O)c2)cc1` [resveratrol], which “Concentrations inhibiting differentiation into capillary-like structures” value [9] is on record?
The value was 0.1 to 1 mM.

Reference: paper PMC2678990, “Stilbene glycosides are natural product inhibitors of FGF-2-induced angiogenesis” (BMC Cell Biology, 2009)
